The source of these data is patent US9937198B2, “Multi-functional composition and preparation method and application thereof” (Suzhou Sciscape Bio-Pharmaceutical Technology Co., Ltd., priority 2013, dated 2018).

SMILES strings stand for the structures.

Common to all, as to assay type: in vivo
In one experiment the test system is normal mice. Briefly: Sleep in normal mice with subdissociative sodium pentobarbital. Conditions: 13.3 mL/kg intragastric; sodium pentobarbital 15 mg/kg i.p. 20 to 30 min later. The procedure: Male ICR mice, 8 weeks old and 20±2 g in body weight, were purchased from Beijing HFK Bioscience Co., Ltd.
(§1) The solutions of Compositions 1 to 7 prepared in this example were used.
After the mice were fed normally for 3 days, they were given no food but water for 18 to 24 h. By body weight, the mice were randomly divided into 11 groups, i.e., a blank control group, administration groups 1 to 7 and negative control groups 1 to 3. The mice in administration groups 1 to 7 were intragastrically administered with the solutions of Compositions 1 to 7 at a dose of 13.3 mL/kg body weight while the mice in the blank control group were intragastrically given sterile water for medical use at a dose of 13.3 mL/kg body weight. The mice in negative control groups 1 to 3 were intragastrically given the solution of trehalose (0.15 g/mL), the solution of validamycin (0.3 mg/mL) and the solution of algal polysaccharides (0.15 g/mL) at a dose of 13.3 mL/kg body weight respectively. Twenty to 30 min post administration, all mice were intraperitoneally injected with sodium pentobarbital at a subdissociative dose (15 mg/kg). The time when the righting reflex disappeared and sleep duration of the mice were recorded.

A further experiment has as its system ovariectomized rats. Nature of the experiment: Osteoporosis amelioration in ovariectomized rats. Conditions: femur, 13.3 mL/kg once a day for 30 days.
Description: Female SD rats, 250 g to 280 g in body weight, were purchased from Shanghai Sippr-BK Lab Animal Co., Ltd.
as §1
After receiving ovariectomy, rats were fed normally for one week. By body weight, the rats were randomly divided into 11 groups, i.e., a blank control group, administration groups 1 to 7 and negative control groups 1 to 3. The rats in administration groups 1 to 7 were intragastrically administered with the solutions of Compositions 1 to 7 respectively at a dose of 13.3 mL/kg body weight while the rats in the blank control group were intragastrically given sterile water for medical use at a dose of 13.3 mL/kg body weight. The rats in negative control groups 1 to 3 were intragastrically given the solution of trehalose (0.15 g/mL), the solution of validamycin (0.3 mg/mL) and the solution of algal polysaccharides (0.15 g/mL) at a dose of 13.3 mL/kg body weight respectively. Administration was conducted once a day and lasted for 30 days. Normal rats were arranged in a normal group and fed normally all the time. Twenty to 30 min post last administration, all rats were killed by cervical vertebrae dislocation, and their femurs were taken out. Then, the bone density and mineral content in the femur were determined.

The subject of experiment [1] is patients with type-II diabetes. Nature of the experiment: Long-term experiment for treatment in human diabetics. Conditions: for Blood glucose level after administration: 200 mL oral. The procedure: Six patients with type-II diabetes were fasted overnight and then measured for fasting blood glucose level. Then they were orally administered with 200 mL of the solution of Composition 1, or 200 mL of solution of trehalose (0.15 g/mL), or 200 mL of the solution of validamycin (0.3 mg/mL), or 200 mL of distilled water, as stated in Table 3.4. The blood glucose level in every patient was tested before administration and one day, one week, two weeks and one month post administration.

For the molecule `OC[C@H]1O[C@H](O[C@H]2O[C@H](CO)[C@@H](O)[C@H](O)[C@H]2O)[C@H](O)[C@@H](O)[C@@H]1O` [trehalose], in the experiment on normal mice, the Sleep duration was 30.54 ± 2.17 min and the “Time when righting reflex disappeared” value is 2.49 ± 0.14 min. In the experiment with ovariectomized rats, this molecule displayed a Bone density of 0.1037 ± 0.0211 g/cm^2 and a Mineral content of 0.1245 ± 0.0374 g/cm.

In the experiment with normal mice, `OCC1=C[C@H](N[C@H]2C[C@H](CO)[C@@H](O[C@@H]3O[C@H](CO)[C@@H](O)[C@H](O)[C@H]3O)[C@H](O)[C@H]2O)[C@H](O)[C@@H](O)[C@@H]1O` [validamycin] came in with a Sleep duration of 29.87 ± 1.58 min. Further, the “Time when righting reflex disappeared” value with normal mice amounted to 3.11 ± 0.21 min. This molecule registered a Bone density in the experiment with ovariectomized rats of 0.1063 ± 0.0222 g/cm^2. In addition, in the experiment on ovariectomized rats, the Mineral content came to 0.1212 ± 0.0311 g/cm. Besides, the “Blood glucose level after administration” value in experiment [1] (1 month, individual type-II diabetics) was 8.9 mmol/L; in experiment [1] (1 week, individual type-II diabetics) it was 9.0 mmol/L; in experiment [1] (2 weeks, individual type-II diabetics) it was 8.7 mmol/L; in experiment [1] (1 day, individual type-II diabetics) it was 8.7 mmol/L. In addition, the “Blood glucose level before administration” value in experiment [1] (fasting baseline, individual type-II diabetics, long-term) stood at 8.8 mmol/L. Moreover, in experiment [1] (up to one month), the “effect on blood glucose level in patients with type-II diabetes, long-term” value is reported as “had no influence on blood glucose level”.
